# Several values for one entry are separate records, joined by “and”; a condition that tells them apart may be missing. Equal values may be shown once.
# Assays:
# BALB/c mice = test: Primary immune response: serum antibody levels; format: in vivo, mouse
# Description: The effect of coadministration of lectin on the B-cell repertoire mounted as a primary response to immunization was also tested directly by antibody formation in the sera. Immunoassays for antibody content for the various antigens were performed as follows:
# For immunization with Torpedo acetylcholine receptor, microtiter: wells were coated overnight with 100 μl of a solution containing 5 μg/ml of purified receptor as prepared in Example 8, Part A, and incubated with serum (diluted 1/25) for 3 hours at 37° C. After washing, the plates were incubated for 3 hours at 37° C. with alkaline phosphatase-conjugated goat anti-mouse immunoglobulins. The plates were then washed extensively and incubated for 1 hour at 37° C. with […] ethanolamine buffer. The reaction was stopped by addition of 25 μl of 3 M NaOH, and the binding of the labeled antibody was measured in an ELISA microreader at 405 nm. […]
# For antibodies against mouse AChR, antibodies were determined using as antigen a complex between a partially purified normal mouse skeletal muscle receptor and ^125I-alpha-bungarotoxin. […]
# . […] The reaction was stopped by addition of 25 μl of 3 M NaOH, and the binding of the labeled antibody was measured in an ELISA microreader at 405 nm. […]
# . Blood was obtained after 3 days and again after 1, 2, 3 and 4 weeks and antibody levels were determined as described above.
# T-cell lines = test: Selection of GPBP-specific T-cell lines from draining lymph nodes; format: in vivo, rat; conditions: lectin-treated rats
# Source text: (§1) In a follow-up experiment, T-cell lines were selected from the draining lymph nodes.
# [1] = Antibodies specific for the lectin in sera of treated rats (ELISA); format: in vivo, rat
# Lewis rats [2] = test: Skin allografts (Brown Norway skin on Lewis rats); format: in vivo, rat; design: key to Hair Growth / Hair Growth, Mean + SD column: whether or not (+ or −) hair growth was restored in the tissue; whether or not (+ or −) hair growth was restored in the tissue
# Description: The work in this report was done in the laboratory of Drs. Arthur Vandenbark and Halina Offner at the Oregon VA Medical Center. Brown Norway rat skin was transplanted onto the back of Lewis rats. Identical grafts were done on both sides of each animal's back and the results of each side (separated by commas) were shown for each parameter in Tables 9 and 10. […] A 250 μg/animal dose of lectin was administered i.v. daily on days 2-17.
# The protocols for the studies reported in Tables 9 and 10 differed only in that the lectin was delivered for four additional days up to day 21 (see Table 10).
# lymph node cells = test: Response of lymph node cells to the lectin (mitogenicity); format: cell-based, rat; conditions: data not shown
# Lewis rats [3] = test: Rat heart transplantation, lectin combined with cyclosporin; format: in vivo; conditions: Group A: Cyclosporin 0, Lectin 2.5 mg/kg/day
# Source text: The heart transplant model of paragraph A was used. Five groups of 5 Lewis rats received hearts from Brown Norway rats and were given the following drugs by group, as shown in Table 8:
# Cyclosporin i.p. was started the day of the graft and continued daily. Recombinant lectin was started two days prior to transplant and continued daily.
# Lewis rats [4] = test: Rat heart transplantation (Brown Norway into Lewis); format: in vivo; conditions: for Onset of Rejection: d − 3 to d + 9, heart allograft
# Description: The studies reported here relate to Brown Norway rat tissue transplanted into Lewis rats. This model, a highly histo-incompatible donor/recipient pair, provides a very stringent test with predictive value in human transplantation. Known general immunosuppressive agents show immunosuppressive activity in these models. Several forums of this model are used in the studies reported here.
# These studies were performed in the laboratory of Dr. Randy Morris of Stanford University. Whole rat hearts were grafted into host rats which were examined daily thereafter for signs of rejection.
# A control group comprised twelve recipients treated daily i.v. only with buffer control. The graft survival times were: 6d (x4), 7d (x7), and 8d, giving a mean survival of […]+/−0.6d (SD). The final day of survival is defined as the day on which the donor heart ceased to contract as assessed by lack of obvious palpitations and as confirmed by direct visualization at laparotomy.
# Five recipients were treated with the recombinant lectin. All animals were pretreated with 1 mg/kg i.v. lectin on days −3, −2 and −1. The first two animals were then treated postoperatively with 1 mg/kg/d i.v. with lectin from day 1 until graft rejection. The second three animals were treated in the postoperative period from day 1 until graft rejection with 2 mg/kg/d i.v. of lectin. Graft survivals were 9 and 10d for the first group of rats, and 9, 10 and 11d for the second group. No dramatic increase in survival was seen by doubling the dose of lectin in group two in the postoperative period. Therefore, graft survival times of both groups were combined for statistical analysis. When graft survival was analyzed, lectin treatment produced a mean graft survival of 9.8+/−0.84d (SD), +/−0.38d (SEM) with a 95% confidence limit. Using the one-tailed Mann-Whitney U-test to compare the differences between the graft survival times for the saline and lectin-treated groups, a P value of 0.00096 was obtained.
# established T-cell lines = test: Lectin added to established T-cell lines; format: cell-based, rat; conditions: lectin added in vitro
# Source text: as §1
# [5] = Day 2 to Day 17, individual animals, first-listed graft side, listed as rIML-1
# [6] = Day 2 to Day 17, individual animals, second-listed graft side, listed as rIML-1
# [7] = Day 2 to Day 21, individual animals, first-listed graft side, listed as rIML-1
# [8] = Day 2 to Day 21, individual animals, second-listed graft side, listed as rIML-1
substance,measurement,setting,value
"Lectin: Soluble 14 kD β-galactoside-binding HL-60/placenta lectin of FIG. 1 (SEQ ID NO:2), prepared recombinantly in E. coli",primary immune response to pneumococcal polysaccharide (T-independent antigen),"BALB/c mice; any dose, FIG. 7",No effect
same,primary immune response to T-dependent antigens,"BALB/c mice; higher doses of lectin (15 and 25 μg), FIGS. 6, 8, 9",significantly lowered
same,GPBP-specific T-cell lines from draining lymph nodes,T-cell lines,no lines could be established
same,antibodies specific for the lectin in sera of treated rats,[1],did not contain
same,delay of rejection of the grafts,"Lewis rats [2]; 250 μg/animal i.v. daily days 2-17, versus control",7 days
same,"Rejection (on day), Mean ± SD",Lewis rats [2]; Day 2 to Day 17,17 ± 2 days
same,Degeneration (on day),Lewis rats [2]; [5],"15 day and 11, day and 14 day"
same,Hair Growth,Lewis rats [2]; [5],"+, + (3×) and − and +"
same,Rejection (on day),Lewis rats [2]; [5],"16 day and 13, day and 16, day and 18, day (2×)"
same,Degeneration (on day),Lewis rats [2]; [6],16 day (2×) and 13 day
same,Hair Growth,Lewis rats [2]; [6],"+, + (3×) and +"
same,Rejection (on day),Lewis rats [2]; [6],17 day and 15 day and 16 day and 18 day (2×)
same,Histology,"Lewis rats [2]; Day 2 to Day 17, individual animals, listed as rIML-1",0
same,"Degeneration (on day), Mean + SD",Lewis rats [2]; Day 2 to Day 21,17 ± 2 days
same,"Hair Growth, Mean + SD column",Lewis rats [2]; Day 2 to Day 21,+
same,"Rejection (on day), Mean + SD",Lewis rats [2]; Day 2 to Day 21,19 ± 2 days
same,Degeneration (on day),Lewis rats [2]; [7],"15 day (3×) and 18, 18 day and 17 day and 18 day"
same,Hair Growth,Lewis rats [2]; [7],"+, + (5×) and −"
same,Rejection (on day),Lewis rats [2]; [7],"18 day (2×) and 19, 19 day and 21, 21 day and 17 day and 19 day"
same,Degeneration (on day),Lewis rats [2]; [8],"19 day (3×) and 18 day and 18, 18 day and 11 day"
same,Hair Growth,Lewis rats [2]; [8],"+, + (5×) and +"
same,Rejection (on day),Lewis rats [2]; [8],"23 day and 19, 19 day and 21, 21 day and 13 day and 20 day and 22 day"
same,mitogenicity for lymph node cells,lymph node cells,not mitogenic
same,Survivors on Day 16,Lewis rats [3],0/5
same,"Graft survival, individual animals","Lewis rats [4]; 1 mg/kg i.v. days −3 to −1, then 1 mg/kg/d i.v. until rejection",9 days and 10 days
same,"Graft survival, individual animals","Lewis rats [4]; 1 mg/kg i.v. days −3 to −1, then 2 mg/kg/d i.v. until rejection",9 days and 10 days and 11 days
same,Onset of Rejection,Lewis rats [4]; 1 mg/kg,9.8 ± .8 days
same,Onset of Rejection,Lewis rats [4]; 2 mg/kg,9.8 ± .8 days
same,toxicity as might be manifested by weight loss,Lewis rats [4]; 1-2 mg/kg/d i.v.,no noticeable toxicity
same,mean graft survival (SD),"Lewis rats [4]; both lectin dose groups combined, five recipients",9.8 ± 0.84 days
same,effect on established T-cell lines,established T-cell lines,no inhibitory effect
